Our source for the EC50, Activity and Tm values is ChEMBL document CHEMBL3390848, “Affinity selection and sequence-activity relationships of HIV-1 membrane fusion inhibitors directed at the drug-resistant variants” (Medchemcomm, 2010).

As usually defined, the pEC50 is the negative decadic logarithm of the EC50, by convention in mol/L. As a reminder, the Tm is the temperature at which the thermal transition is half complete.

Experiment [1] concerns Human immunodeficiency virus 1. In words: Antiviral activity against HIV1 NL4-3 harboring gp41 D36G mutant infected in human HeLa cells expressing CD4-LTR-beta-gal assessed as inhibition of viral replication after 48 hrs by MAGI assay. The class given is functional, organism-based.
The test system of experiment [2] is Human immunodeficiency virus 1. The experiment is described as follows: Binding affinity to HIV1 His-tagged N-terminal heptad repeat of envelope glycoprotein gp41 assessed as recovery of N54-drug complex after 2 hrs by LC-MS analysis. More on the design: concentration or dose not given beside the values.
In experiment [3] the test system is Human immunodeficiency virus 1. In words: Thermal stability of HIV1 envelope glycoprotein gp41 His-tagged N-terminal heptad repeat N54-drug complex assessed as thermal unfolding transition state by measuring molar ellipticity at 4 to 90 degC by circular dichroic spectra analysis.

pEC50: −log10 of the molar value. Residues, ends and D or L forms follow the SMILES beside them.

Take `CC[C@H](C)[C@H](NC(=O)[C@H](CC(C)C)NC(=O)[C@H](CCC(=O)O)NC(=O)[C@H](CCC(=O)O)NC(=O)[C@@H](NC(=O)[C@H](CC(C)C)NC(=O)[C@H](CO)NC(=O)[C@@H](NC(=O)[C@H](Cc1ccc(O)cc1)NC(C)=O)[C@@H](C)O)[C@@H](C)CC)C(=O)N[C@@H](CCCCN)C(=O)N[C@@H](CCCCN)C(=O)N[C@@H](CO)C(=O)N[C@@H](CCC(=O)O)C(=O)N[C@@H](CCC(=O)O)C(=O)N[C@@H](C)C(=O)N[C@@H](CCC(N)=O)C(=O)N[C@@H](CCCCN)C(=O)N[C@@H](CCCCN)C(=O)N[C@@H](CC(N)=O)C(=O)N[C@@H](CCC(=O)O)C(=O)N[C@@H](CCC(=O)O)C(=O)N[C@@H](CCC(=O)O)C(=O)N[C@@H](CC(C)C)C(=O)N[C@@H](CCCCN)C(=O)N[C@@H](CCCCN)C(=O)N[C@@H](CC(C)C)C(=O)N[C@@H](CCC(=O)O)C(=O)N[C@@H](CCC(=O)O)C(=O)N[C@@H](Cc1c[nH]c2ccccc12)C(=O)N[C@@H](C)C(=O)N[C@@H](CCCCN)C(=O)N[C@@H](CCCCN)C(=O)N[C@@H](Cc1c[nH]c2ccccc12)C(=O)N[C@@H](CC(N)=O)C(=O)N[C@@H](Cc1c[nH]c2ccccc12)C(=O)N[C@@H](Cc1ccccc1)C(N)=O` (Ac-YTSLIEELIKKSEEAQKKNEEELKKLEEWAKKWNWF-NH2): the pEC50 in experiment [1] is 8.57. Further, the Activity in experiment [2] was found to be 5.6%. In experiment [3], the Tm stood at 70.4 °C.

Turning to `CC[C@H](C)[C@H](NC(=O)[C@H](CC(C)C)NC(=O)[C@H](CCC(=O)O)NC(=O)[C@H](CCC(=O)O)NC(=O)[C@@H](NC(=O)[C@H](CC(C)C)NC(=O)[C@H](CO)NC(=O)[C@@H](NC(=O)[C@H](Cc1ccc(O)cc1)NC(C)=O)[C@@H](C)O)[C@@H](C)CC)C(=O)N[C@@H](CCCCN)C(=O)N[C@@H](CCCCN)C(=O)N[C@@H](CO)C(=O)N[C@@H](CCC(=O)O)C(=O)N[C@@H](CCC(=O)O)C(=O)NCC(=O)N[C@@H](CCC(N)=O)C(=O)N[C@@H](CCCCN)C(=O)N[C@@H](CCCCN)C(=O)N[C@@H](CC(N)=O)C(=O)N[C@@H](CCC(=O)O)C(=O)N[C@@H](CCC(=O)O)C(=O)N[C@@H](CCC(=O)O)C(=O)N[C@@H](CC(C)C)C(=O)N[C@@H](CCCCN)C(=O)N[C@@H](CCCCN)C(=O)N[C@@H](CC(C)C)C(=O)N[C@@H](CCC(=O)O)C(=O)N[C@@H](CCC(=O)O)C(=O)N[C@@H](Cc1c[nH]c2ccccc12)C(=O)N[C@@H](C)C(=O)N[C@@H](CCCCN)C(=O)N[C@@H](CCCCN)C(=O)N[C@@H](Cc1c[nH]c2ccccc12)C(=O)N[C@@H](CC(N)=O)C(=O)N[C@@H](Cc1c[nH]c2ccccc12)C(=O)N[C@@H](Cc1ccccc1)C(N)=O` (Ac-YTSLIEELIKKSEEGQKKNEEELKKLEEWAKKWNWF-NH2), the negative logarithm of the EC50 (pEC50) in experiment [1] was 8.52. Also, in experiment [2], the Activity amounted to 3.4%. Besides, in experiment [3], the Tm was determined as 66.2 °C.

Take `CC[C@H](C)[C@H](NC(=O)[C@H](CC(C)C)NC(=O)[C@H](CCC(=O)O)NC(=O)[C@H](CCC(=O)O)NC(=O)[C@@H](NC(=O)[C@H](CC(C)C)NC(=O)[C@H](CO)NC(=O)[C@@H](NC(=O)[C@H](Cc1ccc(O)cc1)NC(C)=O)[C@@H](C)O)[C@@H](C)CC)C(=O)N[C@@H](CCCCN)C(=O)N[C@@H](CCCCN)C(=O)N[C@@H](CO)C(=O)N[C@@H](CCC(=O)O)C(=O)N[C@@H](CCC(=O)O)C(=O)N[C@@H](Cc1cnc[nH]1)C(=O)N[C@@H](CCC(N)=O)C(=O)N[C@@H](CCCCN)C(=O)N[C@@H](CCCCN)C(=O)N[C@@H](CC(N)=O)C(=O)N[C@@H](CCC(=O)O)C(=O)N[C@@H](CCC(=O)O)C(=O)N[C@@H](CCC(=O)O)C(=O)N[C@@H](CC(C)C)C(=O)N[C@@H](CCCCN)C(=O)N[C@@H](CCCCN)C(=O)N[C@@H](CC(C)C)C(=O)N[C@@H](CCC(=O)O)C(=O)N[C@@H](CCC(=O)O)C(=O)N[C@@H](Cc1c[nH]c2ccccc12)C(=O)N[C@@H](C)C(=O)N[C@@H](CCCCN)C(=O)N[C@@H](CCCCN)C(=O)N[C@@H](Cc1c[nH]c2ccccc12)C(=O)N[C@@H](CC(N)=O)C(=O)N[C@@H](Cc1c[nH]c2ccccc12)C(=O)N[C@@H](Cc1ccccc1)C(N)=O` (Ac-YTSLIEELIKKSEEHQKKNEEELKKLEEWAKKWNWF-NH2): the pEC50 in experiment [1] was 8.52. In addition, the Activity in experiment [2] is 3.7%. Besides, in experiment [3], the Tm was found to be 68.4 °C.

On to `CC[C@H](C)[C@H](NC(=O)[C@H](CC(C)C)NC(=O)[C@H](CCC(=O)O)NC(=O)[C@H](CCC(=O)O)NC(=O)[C@@H](NC(=O)[C@H](CC(C)C)NC(=O)[C@H](CO)NC(=O)[C@@H](NC(=O)[C@H](Cc1ccc(O)cc1)NC(C)=O)[C@@H](C)O)[C@@H](C)CC)C(=O)N[C@@H](CCCCN)C(=O)N[C@@H](CCCCN)C(=O)N[C@@H](CC(=O)O)C(=O)N[C@@H](CCC(=O)O)C(=O)N[C@@H](CCC(=O)O)C(=O)N[C@@H](CCC(N)=O)C(=O)N[C@@H](CCC(N)=O)C(=O)N[C@@H](CCCCN)C(=O)N[C@@H](CCCCN)C(=O)N[C@@H](CC(N)=O)C(=O)N[C@@H](CCC(=O)O)C(=O)N[C@@H](CCC(=O)O)C(=O)N[C@@H](CCC(=O)O)C(=O)N[C@@H](CC(C)C)C(=O)N[C@@H](CCCCN)C(=O)N[C@@H](CCCCN)C(=O)N[C@@H](CC(C)C)C(=O)N[C@@H](CCC(=O)O)C(=O)N[C@@H](CCC(=O)O)C(=O)N[C@@H](Cc1c[nH]c2ccccc12)C(=O)N[C@@H](C)C(=O)N[C@@H](CCCCN)C(=O)N[C@@H](CCCCN)C(=O)N[C@@H](Cc1c[nH]c2ccccc12)C(=O)N[C@@H](CC(N)=O)C(=O)N[C@@H](Cc1c[nH]c2ccccc12)C(=O)N[C@@H](Cc1ccccc1)C(N)=O` (Ac-YTSLIEELIKKDEEQQKKNEEELKKLEEWAKKWNWF-NH2), for which, in experiment [1], the pEC50 was 6.48. The Activity in experiment [2] was 1.5%. In experiment [3], the Tm came out at 56.5 °C.

On to `CC[C@H](C)[C@H](NC(=O)[C@H](CC(C)C)NC(=O)[C@H](CCC(=O)O)NC(=O)[C@H](CCC(=O)O)NC(=O)[C@@H](NC(=O)[C@H](CC(C)C)NC(=O)[C@H](CO)NC(=O)[C@@H](NC(=O)[C@H](Cc1ccc(O)cc1)NC(C)=O)[C@@H](C)O)[C@@H](C)CC)C(=O)N[C@@H](CCCCN)C(=O)N[C@@H](CCCCN)C(=O)N[C@@H](CCCCN)C(=O)N[C@@H](CCC(=O)O)C(=O)N[C@@H](CCC(=O)O)C(=O)N[C@@H](CCC(N)=O)C(=O)N[C@@H](CCC(N)=O)C(=O)N[C@@H](CCCCN)C(=O)N[C@@H](CCCCN)C(=O)N[C@@H](CC(N)=O)C(=O)N[C@@H](CCC(=O)O)C(=O)N[C@@H](CCC(=O)O)C(=O)N[C@@H](CCC(=O)O)C(=O)N[C@@H](CC(C)C)C(=O)N[C@@H](CCCCN)C(=O)N[C@@H](CCCCN)C(=O)N[C@@H](CC(C)C)C(=O)N[C@@H](CCC(=O)O)C(=O)N[C@@H](CCC(=O)O)C(=O)N[C@@H](Cc1c[nH]c2ccccc12)C(=O)N[C@@H](C)C(=O)N[C@@H](CCCCN)C(=O)N[C@@H](CCCCN)C(=O)N[C@@H](Cc1c[nH]c2ccccc12)C(=O)N[C@@H](CC(N)=O)C(=O)N[C@@H](Cc1c[nH]c2ccccc12)C(=O)N[C@@H](Cc1ccccc1)C(N)=O` (Ac-YTSLIEELIKKKEEQQKKNEEELKKLEEWAKKWNWF-NH2), for which the pEC50 in experiment [1] was 6.48. The Activity in experiment [2] came out at 0.8%. Further, the Tm in experiment [3] is 50.6 °C.

Regarding `CC[C@H](C)[C@H](NC(=O)[C@H](CC(C)C)NC(=O)[C@H](CCC(=O)O)NC(=O)[C@H](CCC(=O)O)NC(=O)[C@@H](NC(=O)[C@H](CC(C)C)NC(=O)[C@H](CO)NC(=O)[C@@H](NC(=O)[C@H](Cc1ccc(O)cc1)NC(C)=O)[C@@H](C)O)[C@@H](C)CC)C(=O)N[C@@H](CCCCN)C(=O)N[C@@H](CCCCN)C(=O)N[C@@H](CO)C(=O)N[C@@H](CCC(=O)O)C(=O)N[C@@H](CCC(=O)O)C(=O)N[C@@H](Cc1c[nH]c2ccccc12)C(=O)N[C@@H](CCC(N)=O)C(=O)N[C@@H](CCCCN)C(=O)N[C@@H](CCCCN)C(=O)N[C@@H](CC(N)=O)C(=O)N[C@@H](CCC(=O)O)C(=O)N[C@@H](CCC(=O)O)C(=O)N[C@@H](CCC(=O)O)C(=O)N[C@@H](CC(C)C)C(=O)N[C@@H](CCCCN)C(=O)N[C@@H](CCCCN)C(=O)N[C@@H](CC(C)C)C(=O)N[C@@H](CCC(=O)O)C(=O)N[C@@H](CCC(=O)O)C(=O)N[C@@H](Cc1c[nH]c2ccccc12)C(=O)N[C@@H](C)C(=O)N[C@@H](CCCCN)C(=O)N[C@@H](CCCCN)C(=O)N[C@@H](Cc1c[nH]c2ccccc12)C(=O)N[C@@H](CC(N)=O)C(=O)N[C@@H](Cc1c[nH]c2ccccc12)C(=O)N[C@@H](Cc1ccccc1)C(N)=O` (Ac-YTSLIEELIKKSEEWQKKNEEELKKLEEWAKKWNWF-NH2), the pEC50 in experiment [1] was 8.60. Moreover, the Activity in experiment [2] came to 8.1%. In experiment [3], the Tm amounted to 68.8 °C.

Regarding `CC[C@H](C)[C@H](NC(=O)[C@H](CC(C)C)NC(=O)[C@H](CCC(=O)O)NC(=O)[C@H](CCC(=O)O)NC(=O)[C@@H](NC(=O)[C@H](CC(C)C)NC(=O)[C@H](CO)NC(=O)[C@@H](NC(=O)[C@H](Cc1ccc(O)cc1)NC(C)=O)[C@@H](C)O)[C@@H](C)CC)C(=O)N[C@@H](CCCCN)C(=O)N[C@@H](CCCCN)C(=O)N[C@@H](CCC(=O)O)C(=O)N[C@@H](CCC(=O)O)C(=O)N[C@@H](CCC(=O)O)C(=O)N[C@@H](CCC(N)=O)C(=O)N[C@@H](CCC(N)=O)C(=O)N[C@@H](CCCCN)C(=O)N[C@@H](CCCCN)C(=O)N[C@@H](CC(N)=O)C(=O)N[C@@H](CCC(=O)O)C(=O)N[C@@H](CCC(=O)O)C(=O)N[C@@H](CCC(=O)O)C(=O)N[C@@H](CC(C)C)C(=O)N[C@@H](CCCCN)C(=O)N[C@@H](CCCCN)C(=O)N[C@@H](CC(C)C)C(=O)N[C@@H](CCC(=O)O)C(=O)N[C@@H](CCC(=O)O)C(=O)N[C@@H](Cc1c[nH]c2ccccc12)C(=O)N[C@@H](C)C(=O)N[C@@H](CCCCN)C(=O)N[C@@H](CCCCN)C(=O)N[C@@H](Cc1c[nH]c2ccccc12)C(=O)N[C@@H](CC(N)=O)C(=O)N[C@@H](Cc1c[nH]c2ccccc12)C(=O)N[C@@H](Cc1ccccc1)C(N)=O` (Ac-YTSLIEELIKKEEEQQKKNEEELKKLEEWAKKWNWF-NH2), the pEC50 in experiment [1] is 6.64. Besides, the Activity in experiment [2] turned out to be 2.2%. Besides, the Tm in experiment [3] is 61 °C.
